{"source": "patent US20240216272A1", "about": "“PHARMACEUTICAL PREPARATION” (KOWA COMPANY, LTD., priority 2014, published 2024)", "type_in_all_cases": "physicochemical", "key": {"[1]": {"assay": "Test Example 6: photostability in container with shrinkable film containing an ultraviolet scattering agent", "conditions": "for Analogs (%): aqueous composition 0.4 g/100 mL as free form, pH 6.0, polypropylene container wound with shrinkable film containing titanium oxide (transmittance 300 to 335 nm: 0.3%)", "procedure": "Stabilization of the aqueous composition containing ripasudil was attempted by storing the aqueous composition in a container containing an ultraviolet scattering agent, as in Test Example 5. Specifically, the test was performed as in Test Example 5, except that the below-described container including a shrinkable film containing an ultraviolet scattering agent was used instead of the container containing an ultraviolet absorber, and a white fluorescent lamp (one used in a hospital dispensary and the like) was used as the light source instead of the D65 fluorescent lamp. A white shrinkable film (heat-shrinkable film) (Iwata Label Co., Ltd.) into which 40 to 45 mass % of titanium oxide was mixed as an ultraviolet scattering agent was wound around a side surface of a general container for eye drops made of polypropylene not containing an ultraviolet absorber, an ultraviolet scattering agent, or the like, in accordance with a conventional method, and the resulting container was used. […] Since the shrinkable film was not transparent, the contents were not visible through the side surface of the container in this state (for example, the average value of transmittance of light in the visible light region (450 to 750 nm) was 1.1%). Thus, slits with about a width of 5 mm were provided in the lower half of the side surface of the container to make the amount of the contents visible (this portion was not able to block the rays). The contents were visible through the bottom surface of the container, since the shrinkable film was not wound around the bottom surface."}, "[2]": {"assay": "Test Example 7: Preservation Test No. 1, color difference (ΔYI) at 60° C.", "conditions": "for ΔYI: aqueous composition of Table 7 (phosphate, pH 6.7), 60° C. for 3 months; for Evaluation (ΔYI): aqueous composition of Table 7, 60° C. for 3 months", "procedure": "An aqueous composition of the formulation shown in Table 7 was prepared in accordance with a conventional method, and then placed in a container made of polyethylene (PE), polypropylene (PP), or polyvinyl chloride (PVC) to produce a pharmaceutical preparation. Each of the resulting pharmaceutical preparations was preserved at 60° C. for 3 months, and a color difference (ΔYI) before and after the preservation was measured using a color difference meter (spectrophotometer, CM-700d: Konica Minolta Sensing, Inc.). A ΔYI value of 5 or more was rated as “b”, and a ΔYI value of less than 5 was rated as “a”. [table]"}, "[3]": {"assay": "Test Example 1: photostability of ripasudil (powder), analogs by HPLC", "conditions": "for Analogs (%): powder in glass petri dish, D65 fluorescent lamp 4000 lux, 25° C.", "procedure": "In the following test examples, ripasudil monohydrochloride dihydrate can be produced in accordance with the method described in WO2006/057397, for example. Moreover, in the following test examples, measurement of ripasudil and its analogs using HPLC was performed using an ODS column as the column, 0.01 mol/L phosphate buffer and acetonitrile as the mobile phase, and an ultraviolet absorptiometer (wavelength: 280 nm) as the detector.\nThe stability of ripasudil with respect to light was evaluated by examining the presence or absence of degradation products formed by exposure to light.\nSpecifically, powdery ripasudil monohydrochloride dihydrate was spread in a glass petri dish to a thickness of 3 mm or less, and then irradiated with 4000 lux of light to give a cumulative radiation dose of 400,000, 800,000, or 1,200, 000 lux·hr, at 25° C., with a D65 fluorescent lamp as the light source, using a photostability tester (LT-120A: Nagano Science Corporation).\nTo examine the presence or absence of photodegradation products of ripasudil, the presence or absence of an increase in the amount of ripasudil analogs was evaluated for the sample before and after exposure to light. The amount of analogs was evaluated as the ratio (%) of the peak area of analogs relative to the peak area of ripasudil, using HPLC."}, "[4]": {"assay": "Test Example 9: Preservation Test No. 3, precipitation of crystals at 0° C.", "design": "key to Presence or Absence of Precipitation of Crystals: the absence of precipitation of crystals was rated as “a”; the presence of precipitation of crystals was rated as “b”", "conditions": "for Presence or Absence of Precipitation of Crystals: aqueous composition of Table 11 (phosphate, pH 6.7), 0° C. for 2 days; for precipitation of crystals: preserved at low temperature, in words", "procedure": "An aqueous composition of the formulation shown in Table 11 was prepared in accordance with a conventional method, and then placed in a container made of polyethylene terephthalate (PET) or polyvinyl chloride (PVC) to produce a pharmaceutical preparation. Each of the resulting pharmaceutical preparations was preserved at 0° C. for 2 days, and then visually evaluated for the presence or absence of precipitation of crystals. Note that the absence of precipitation of crystals was rated as “a”, and the presence of precipitation of crystals was rated as “b”. [table]"}, "[5]": {"assay": "Test Example 5: photostability in plastic container containing an ultraviolet absorber", "conditions": "for Analogs (%): aqueous composition 0.4 g/100 mL as free form, pH 6.0, polypropylene container containing ultraviolet absorber (transmittance 300 to 335 nm: 7.2%)", "procedure": "Based on the results obtained in Test Examples 3 and 4, stabilization of an aqueous composition containing ripasudil was attempted by storing the aqueous composition in a container containing an ultraviolet absorber.\nSpecifically, an aqueous composition containing, per 100 mL, 0.4896 g of ripasudil monohydrochloride dihydrate (0.4 g, as the free form of ripasudil), 0.4 g of anhydrous sodium dihydrogen phosphate, 2.136 g of glycerin, 0.002 g of benzalkonium chloride, an appropriate amount of sodium hydroxide (pH 6.0), and sterile purified water (balance) was prepared. This aqueous composition was then stored in the below-described container for eye drops made of polypropylene, which contained an ultraviolet absorber. The aqueous composition was then irradiated with 4000 lux of light to give a cumulative radiation dose of 1,200,000 lux.hr, at 25° C., with a D65 fluorescent lamp as the light source, using a photostability tester (LT-120A: Nagano Science Corporation).\nThe amount of ripasudil analogs was evaluated for the sample before and after exposure to light, as in Test Example 1.\nA container for eye drops made of polypropylene into which a benzotriazole-based ultraviolet absorber was mixed was used."}}}
{"smiles": "C[C@H]1CNCCCN1S(=O)(=O)c1cccc2cncc(F)c12", "note": "[ripasudil, 4-fluoro-5-[[(2S)-2-methyl-1,4-diazepan-1-yl]sulfonyl]isoquinoline]", "values": [{"measurement": "Analogs (%)", "setting": "[1]; before exposure to light", "result": 0.13, "unit": "%"}, {"measurement": "Analogs (%)", "setting": "[1]; white fluorescent lamp, 1,200,000 lux·hr", "result": 0.28, "unit": "%"}, {"measurement": "photostability of ripasudil in the aqueous composition", "setting": "[1]; container with average transmittance at 300 to 335 nm of 0.3%, in words", "result": "improved"}, {"measurement": "ΔYI", "setting": "[2]; container PE", "result": 4.07}, {"measurement": "ΔYI", "setting": "[2]; container PP", "result": 4.42}, {"measurement": "ΔYI", "setting": "[2]; container PVC", "result": 7.45}, {"measurement": "Evaluation (ΔYI)", "setting": "[2]; container PE", "result": "a (a ΔYI value of less than 5 was rated as “a”)"}, {"measurement": "Evaluation (ΔYI)", "setting": "[2]; container PP", "result": "a (a ΔYI value of less than 5 was rated as “a”)"}, {"measurement": "Evaluation (ΔYI)", "setting": "[2]; container PVC", "result": "b (A ΔYI value of 5 or more was rated as “b”)"}, {"measurement": "Analogs (%)", "setting": "[3]; before exposure to light", "result": 0.11, "unit": "%"}, {"measurement": "Analogs (%)", "setting": "[3]; cumulative radiation dose 400,000 lux·hr", "result": 0.14, "unit": "%"}, {"measurement": "Analogs (%)", "setting": "[3]; cumulative radiation dose 800,000 lux·hr", "result": 0.16, "unit": "%"}, {"measurement": "Analogs (%)", "setting": "[3]; cumulative radiation dose 1,200,000 lux·hr", "result": 0.16, "unit": "%"}, {"measurement": "formation of photodegradation products", "setting": "[3]; powder, up to 1,200,000 lux·hr, in words", "result": "no formation of photodegradation products was observed"}, {"measurement": "Presence or Absence of Precipitation of Crystals", "setting": "[4]; container PET", "result": "a"}, {"measurement": "Presence or Absence of Precipitation of Crystals", "setting": "[4]; container PVC", "result": "b"}, {"measurement": "precipitation of crystals", "setting": "[4]; container made of PET", "result": "no precipitation of crystals was observed"}, {"measurement": "precipitation of crystals", "setting": "[4]; container made of PVC", "result": "precipitation of crystals was observed"}, {"measurement": "Analogs (%)", "setting": "[5]; D65 lamp, 25° C., 1,200,000 lux·hr", "result": 0.55, "unit": "%"}, {"measurement": "Analogs (%)", "setting": "[5]; before exposure to light", "result": 0.11, "unit": "%"}, {"measurement": "photostability of ripasudil in the aqueous composition", "setting": "[5]; container with average transmittance at 300 to 335 nm of 7.2%, in words", "result": "improved"}]}
